Earlier results, collected in patent US20070037740A1, “Combination therapy with glatiramer acetate and alphacalcidol for the treatment of multiple sclerosis” (priority 2003, published 2007).

Legend:
[1] = tested on: murine experimental autoimmune encephalomyelitis (EAE)
[2] = daily subcutaneous injections, 20 mg/injection

What does the source list for `C=C1/C(=C\C=C2/CCC[C@]3(C)[C@@H]([C@H](C)CCCC(C)(C)O)CC[C@@H]23)C[C@@H](O)C[C@@H]1O` [1α,25-dihydroxycholecalciferol]?
progression of murine EAE ([1]; administered after the induction of EAE): prevents the progression; development of murine EAE ([1]; mouse, in vivo): prevents the development

Which results are given for “L-glutamic acid polymer with L-alanine, L-lysine and L-tyrosine, acetate (salt) [glatiramer acetate]”?
appearance of "black holes" (multiple sclerosis; [2]): reduce; appearance of new lesions by magnetic resonance imaging (MRI) (multiple sclerosis; [2]): reduce; progression of disability (multiple sclerosis; [2]): reduce; relapse rates (multiple sclerosis; [2]): reduce; effective in treating multiple sclerosis (MS) (multiple sclerosis; in vivo): effective
